Where “and” joins values, the source holds several entries; their conditions need not be identical. Identical values can stand only once. Like-named read-outs stand apart in the source and are kept apart here.
Legend:
SARS-CoV-2 [1] = assay type: cell-based
[2] = Blood plasma levels in human patients; assay type: in vivo; conditions: monepantel as Zolvix 5 mg/kg bw daily
Procedure: In a Phase 1 b clinical trial, monepantel administered as Zolvix daily to four human patients (PA02, PA04, PA06 and PA07) at 5 mg/kg bw provided an anticancer effect by computerised tomography (CT) scanning according to RECIST1.1 criteria. […] Evidence of mTOR pathway signalling inhibition in these patients was supported by the finding of decreased eurkaryotic translation initiation factor 4E-binding protein 1 (EIF-4EBP1) phosphorylation levels from the preparations of PBMCs from PA02, PA04 and PA06 (FIG. 1B). EIF-4EIBP1 phosphorylation levels were not assayed from preparations of PBMCs from PA07.
Blood plasma monepantel and monepantel sulfone levels of all four patients were recorded at intervals throughout treatment (Table 2).

SARS-CoV-2 [3] = assay type: cell-based; conditions: 40 μM and 8 μM compared to 0.064 μM, p<0.001
CHO cells = conditions: no virus, read-out: CHO and cell 1050 values for MPLS treatment alone; cited from earlier work
[4] = tested on: VERO cells infected with SARS-CoV-2; assay type: cell-based; conditions: approximately 10 μM MPLS
[5] = Blood plasma levels in pet dogs of the veterinary trial; assay type: in vivo, dog; conditions: pet dogs, monepantel 179 mg/kg bw daily; one value per dog
Procedure: In a Phase 2 veterinary clinical trial, monepantel was administered as tablets daily to six pet dog patients (dog identification numbers: 001-001, 001-002, 001-003, 003-001, 004-002 and 004-003) with treatment naïve B cell lymphoma at a target dose of 179 mg/kg bw. Superficial tumour lesions were measured with calipers, while lesions within the body were assessed by X-Ray, ultrasound, computer tomography (CT) and/or physical palpitation. Baseline Day 0 (D0) predose caliper, X-Ray, ultrasound and CT measurements where available as well as a complete physical examination were recorded.
An inverse correlation between RECIST1.1 response and blood plasma levels of monepantel and monepantel sulfone was evident. The one dog (003-001) that achieved a partial response, recorded monepantel and […] of 0.1 and 6.7 μM, respectively.

SARS-CoV-2 [6] = assay type: cell-based; conditions: Calu-3 human cells, concentrations from 3.00 μM down to 0.013 μM

In the case of `C[C@](C#N)(COc1cc(C#N)ccc1C(F)(F)F)NC(=O)c1ccc(S(=O)(=O)C(F)(F)F)cc1` [MPLS, monepantel sulfone], the “SARS-CoV-2 infectivity (TCID50, repeat experiment) compared to no treatment” value (SARS-CoV-2 [1]; MPLS 11.11 μM (highest concentration), VERO cells) is reported as “significantly reduces SARS-CoV-2 infectivity”, the “pathogenicity of VERO cell culture media following infection (TCID50)” value (SARS-CoV-2 [1]; MPLS 8 and 40 μM, strong trend) is reported as “reduce the pathogenicity” and the “Blood plasma level of monepantel sulfone, Average” value (shortened to “Blood plasma level … Average”) ([2]; 0.25 h, average of patients) is reported as 0.00 ∞M. The “Blood plasma level of monepantel sulfone” value ([2]; 0.25 h, individual patients) was 0 ng/ml (3×) and 5.4 ng/ml, the “Blood plasma level … Average” value ([2]; 0.5 h, average of patients) was 0.05 ∞M and the “Blood plasma level of monepantel sulfone” value ([2]; 0.5 h, individual patients) was 8.63 ng/mL and 37.5 ng/mL and 32.1 ng/mL and 13.1 ng/mL. For the same compound, the “Blood plasma level … Average” value ([2]; 1 h, average of patients) was 0.29 ∞M, the “Blood plasma level of monepantel sulfone” value ([2]; 1 h, individual patients) was 65.5 ng/mL and 152 ng/mL and 252 ng/mL and 125 ng/mL and the “Blood plasma level … Average” value ([2]; 2 h, average of patients) was 0.86 ∞M. For the same compound, the “Blood plasma level of monepantel sulfone” value ([2]; 2 h, individual patients) was 266 ng/mL and 482 ng/mL and 639 ng/mL and 360 ng/mL, the “Blood plasma level … Average” value ([2]; 4 h, average of patients) was 1.77 ∞M and the “Blood plasma level of monepantel sulfone” value ([2]; 4 h, individual patients) was 1050 ng/mL and 663 ng/mL and 1140 ng/mL. The “Blood plasma level … Average” value ([2]; 8 h, average of patients) was 1.13 ∞M, the “Blood plasma level of monepantel sulfone” value ([2]; 8 h, individual patients) was 637 ng/mL and 398 ng/mL and 689 ng/mL and the “Blood plasma level … Average” value ([2]; 12 h, average of patients) was 0.68 ∞M. For the same compound, the “Blood plasma level of monepantel sulfone” value ([2]; 12 h, individual patients) was 276 ng/mL and 348 ng/mL and 351 ng/mL, the “Blood plasma level … Average” value ([2]; 24 h, average of patients) was 0.45 ∞M and the “Blood plasma level of monepantel sulfone” value ([2]; 24 h, individual patients) was 179 ng/mL and 258 ng/mL and 214 ng/mL. The “Blood plasma level … Average” value ([2]; pre-dose D3, average of patients) was 267.8 ng/ml and 0.53 ∞M, the “Blood plasma level of monepantel sulfone” value ([2]; pre-dose D3, individual patients) was 269 ng/mL and 240 ng/mL and 285 ng/mL and 277 ng/mL and the “Blood plasma level … Average” value ([2]; pre-dose D4, average of patients) was 272.3 ng/ml and 0.54 ∞M. The “Blood plasma level of monepantel sulfone” value ([2]; pre-dose D4, individual patients) was 291 ng/ml (2×) and 231 ng/ml and 276 ng/ml, the “Blood plasma level … Average” value ([2]; pre-dose D5, average of patients) was 238.3 ng/ml and 0.47 ∞M and the “Blood plasma level of monepantel sulfone” value ([2]; pre-dose D5, individual patients) was 233 ng/mL and 229 ng/mL and 250 ng/mL and 241 ng/mL. The “Blood plasma level … Average” value ([2]; pre-dose D6, average of patients) was 214.3 ng/ml and 0.42 ∞M, the “Blood plasma level of monepantel sulfone” value ([2]; pre-dose D6, individual patients) was 232 ng/mL and 205 ng/mL and 216 ng/mL and 204 ng/mL and the “Blood plasma level … Average” value ([2]; pre-dose D7, average of patients) was 205.0 ng/ml and 10.41 ∞M. For the same compound, the “Blood plasma level of monepantel sulfone” value ([2]; pre-dose D7, individual patients) was 215 ng/mL and 188 ng/mL and 235 ng/mL and 182 ng/mL, the “Blood plasma level … Average” value ([2]; pre-dose D14, average of patients) was 148.0 ng/ml and 0.29 ∞M and the “Blood plasma level of monepantel sulfone” value ([2]; pre-dose D14, individual patients) was 158 ng/mL and 131 ng/mL and 154 ng/mL and 149 ng/mL. The “Blood plasma level … Average” value ([2]; pre-dose D21, average of patients) was 147.0 ng/ml and 0.29 ∞M, the “Blood plasma level of monepantel sulfone” value ([2]; pre-dose D21, individual patients) was 157 ng/mL and 146 ng/mL and 138 ng/mL and the “Blood plasma level … Average” value ([2]; pre-dose D28, average of patients) was 154.3 ng/ml and 0.31 ∞M. For the same compound, the “Blood plasma level of monepantel sulfone” value ([2]; pre-dose D28, individual patients) was 180 ng/mL and 162 ng/mL and 121 ng/mL, the concentration at 0.25 h ([2]; plasma, oral, 5 mg/kg bw, 0.25 h, average of patients, read-out: Blood plasma level of monepantel sulfone, Average) was 1.4 ng/mL and the concentration at 0.5 h ([2]; plasma, oral, 5 mg/kg bw, 0.5 h, average of patients, read-out: Blood plasma level of monepantel sulfone, Average) was 22.8 ng/mL. For the same compound, the concentration at 1 h ([2]; plasma, oral, 5 mg/kg bw, 1 h, average of patients, read-out: Blood plasma level of monepantel sulfone, Average) was 149 ng/mL, the concentration at 2 h ([2]; plasma, oral, 5 mg/kg bw, 2 h, average of patients, read-out: Blood plasma level of monepantel sulfone, Average) was 437 ng/mL and the concentration at 4 h ([2]; plasma, oral, 5 mg/kg bw, 4 h, average of patients, read-out: Blood plasma level of monepantel sulfone, Average) was 896 ng/mL. For the same compound, the concentration at 4 h ([2]; plasma, oral, 5 mg/kg bw, 4 h, individual patients, read-out: Blood plasma level of monepantel sulfone) was 732 ng/mL, the concentration at 8 h ([2]; plasma, oral, 5 mg/kg bw, 8 h, average of patients, read-out: Blood plasma level of monepantel sulfone, Average) was 572 ng/mL and the concentration at 8 h ([2]; plasma, oral, 5 mg/kg bw, 8 h, individual patients, read-out: Blood plasma level of monepantel sulfone) was 565 ng/mL. It also gave a concentration at 12 h ([2]; plasma, oral, 5 mg/kg bw, 12 h, average of patients, read-out: Blood plasma level of monepantel sulfone, Average) of 346 ng/mL, a concentration at 12 h ([2]; plasma, oral, 5 mg/kg bw, 12 h, individual patients, read-out: Blood plasma level of monepantel sulfone) of 409 ng/mL and a concentration at 24 h ([2]; plasma, oral, 5 mg/kg bw, 24 h, average of patients, read-out: Blood plasma level of monepantel sulfone, Average) of 226 ng/mL. The concentration at 24 h ([2]; plasma, oral, 5 mg/kg bw, 24 h, individual patients, read-out: Blood plasma level of monepantel sulfone) was 254 ng/mL, the “SARS-CoV-2 RNA concentration in the media (qPCR)” value (SARS-CoV-2 [3]) was “significantly decreased” and the IC50 (CHO cells) was 74 µM. The “toxic effect upon VERO cells infected with SARS-CoV-2 (LDH)” value (VERO cells) was “minimal toxic effect”, the “toxicity caused by SARS-CoV-2” value (VERO cells) was “appeared to increase toxicity” and the “toxicity of VERO cells to SARS-CoV-2 infection” value (VERO cells) was “may slightly increase toxicity”. The “toxicity to VERO cells” value (VERO cells) was “no signs of toxicity”, the “toxicity to uninfected VERO cells” value (VERO cells) was “some toxicity” and the SARS-CoV-2 toxicity (VERO cells; African green monkey) was “does not apparently increase SARS-CoV-2 toxicity”. For the same compound, the “protection against cell death following infection with SARS-CoV-2” value [4] was “almost completely protected VERO cell against cell death”, the “Blood plasma Monepantel sulfone Day 24” value [5] was 26.1 µM and the “SARS-CoV-2 infectivity (TCID50)” value (SARS-CoV-2 [6]) was “reduced SARS-CoV-2 infectivity”.

— patent US12213957B2, “Use of aminoacetonitrile compounds for the treatment of infection and disease” (PITNEY PHARMACEUTICALS PTY LIMITED, priority 2020, dated 2025)
